Source: US20190284192A1, “NITROGENOUS MACROCYCLIC COMPOUND, PREPARATION METHOD THEREFOR, PHARMACEUTICAL COMPOSITION AND APPLICATION THEREOF” (LUOXIN PHARMACEUTICAL (SHANGHAI) CO., LTD., priority 2016, published 2019)
“And” between values parts separate entries of the source, which are not always exact repeats. Equal entries are not always repeated. Where two headings read alike, the source gives them in different places.

Legend:
[1] = biological target: T1, BRD4 (BD1) (Homo sapiens, UniProt O60885); test: BRD4 (BD1) bromodomain binding, HTRF; settings: 2 h incubation at r.t.
T1 construct: Each member comprises two tandem bromodomains (BD1 and BD2) for recognizing the acetylated lysine residues

[2] = Body weight of MV-4-11 tumor-bearing mice during treatment; type: in vivo
Method: The preparation and any revision of this experimental protocol are carried out in accordance with the evaluation criteria of the “Institute for Animal Care and Use (IACUC)” of Shanghai Chempartner Chemical Research Co., Ltd. The use and welfare of laboratory animals are carried out in accordance with the provisions of the Association for Assessment and Accreditation of Laboratory Animal Care (AAALAC). Animals are monitored daily for health and death. Routine examinations include observations of the effects of the test substance and the drug on the daily behavior of the animal such as behavioral activities, intake of water and feeds, weight change (three weights measured weekly), appearance signs or other anormal circumstance. The number of animal deaths and side effects in the group were recorded based on the number of animals in each group.

[3] = test system: MV-4-11 subcutaneous xenograft tumor; test: Anti-tumor efficacy in vivo, MV-4-11 subcutaneous xenograft model; design: species or system BALB/c nude mice; settings: for P, tumor volume difference between the control group and the administrated group: Two-way Anova Bonferroni post-test
Method: According to the growth of the cells, the treatment was passaged twice a week. When the cells are in the exponential growth phase, the cells are collected, counted, and inoculated.
Experimental protocol: 0.2 mL of cell suspension containing about 5×10^MV-4-11 cells (cell suspended in IMDM medium and added with 50% Matrigel) was inoculated subcutaneously into the right back of each mouse. Group administration was initiated when the average tumor volume reached approximately 136.94 mm^3 (day 15 post inoculation). Grouping method: Animals were weighed before dosing and tumor volume was measured. Grouping designed based on tumor volume.
The experimental indicator is to investigate whether tumor growth can be inhibited, delayed or cured. Tumor diameters were measured with vernier calipers three times a week. The formula for calculating tumor volume is: V=0.5×a×b^2, a and b represent the long and short diameters of the tumor, respectively. The antitumor effect of the compound was evaluated by T/C (%). T/C %=TRTV/CRTV×100% (TRTV: treatment group RTV; CRTV: negative comparative group RTV). The relative tumor volume RTV is calculated as RTV=Vt/V1. Where V1 is the measured tumor volume at the time of group administration (i.e., Day 1), and Vt is the tumor volume at each measurement.
The tumor volume and tumor size were analysed by statistical software. GraphPad Prism software was used for analyzation, p<0.05 is considered to have significant difference, p<0.01 is considered to have extremely significant difference.
Two-way Anova Bonferroni post-test is used to compare the tumor volume difference between the control group and the treatment group.

[4] = Cassette pharmacokinetic study, intravenous or oral administration; type: in vivo, female Balb/c nude mice; design: Cmax: unit not given here; settings: for half-life: read-out: Terminal t1/2 (converted)
Method: Determinations of the pharmacokinetic parameters of ABBV-075 (standard control), 4009, 4018, 4026 and 4031 in femal Balb/c nude mice after intravenous or oral administration.
Detailed Experimental Steps:
6 female Balb/c nude mice weighing 18-20 g were divided into two groups (3/group), after fixation, the intravenous group: 0.5 mg/kg (5 mL/kg) injected by caudal vein (N=3); the oral group: 2 mg/kg (10 mL/kg) by intragastic administration (N=3). Approximately 20 μL of blood was drawn behind the eyeball at the sampling point and placed in EDTA-2K tube. The sample was immediately diluted with 40 μL of double distilled water and vortexed until well mixed. Blood samples were stored at approximately −70° C. and submitted to the BA group for analysis (LC/MS). 30 μL of blood sample was added with 200 μL of H2O and 30 μL of IS dexamethasone, 200 ng/mL), layered by LLE, and 1 mL of MTBW was added as an organic extraction solvent. The mixture was vortexed for 10 min and centrifuged at 10,000 rpm for 5 min. 850 μL of the supernatant was evaporated under nitrogen until desiccated. The desiccated extract was re-mixed with 150 μL of 50% methanol, vortexed for 2 min, and then analyzed by injecting 5 μL of the supernatant into LC-MS/MS.
2. Intravenous/oral administration formula: 5% DMSO, 95% (10% HP-3-CD in water)
3. PK calculation parameter used non-compartment model, WinNonlin 6.4 software calculation

[5] = Metabolic stability in human liver microsomes; type: in vitro ADME; settings: human liver microsomes 0.5 mg/mL, NADPH, 37° C.
Summary of the method: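 Compound at 1.5 μM in liver microsome dosing solution (pH 7.4 potassium phosphate, 1.0 mM EDTA) was incubated at 37 °C with NADPH and sampled at 0, 5, 15, 30, 45 min in duplicate, quenched with ACN. LC-MS/MS remaining compound fit to first-order decay; T1/2 = 0.693/K.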

[6] = biological target: T2, BRD4 (BD2) (Homo sapiens, UniProt O60885); test: BRD4 (BD2) bromodomain binding, HTRF; settings: 2 h incubation at r.t.
T2 construct: Each member comprises two tandem bromodomains (BD1 and BD2) for recognizing the acetylated lysine residues

[7] = x ± SEM, intragastric QD*14, ABBV-075 3, GSK762 15, 4009 10 mg/kg
[8] = female, Balb/c nude, mouse, whole blood, IV 0.5 mg/kg, N = 3, cassette
[9] = female, Balb/c nude, mouse, whole blood, PO 2 mg/kg, N = 3, cassette

CCS(=O)(=O)Cc1ccc2c(c1)-c1cn(C)c(=O)cc1CN=C2c1ccc(F)cc1 [Compound 4009, 7-(4-fluorophenyl)-2-methyl-10-(ethylsulfonemethyl)-2H-benzo[c]pyrido[3,4-e]azepin-3(5H)-ketone]
IC50 [1]: 6 nM | body weight and condition of mice during the entire administration period ([2]; 4009 10 mg/kg intragastric QD*14): did not decrease in body weight | Average RCBW, Treatment end Day 15 ([2]; relative body weight change vs Day 1, intragastric QD*14, ABBV-075 3, GSK762 15, 4009 10 mg/kg): 2.82% | Average body weight, Treatment end Day 15 [2, 7]: 21.88 ± 0.73 g | Average body weight, Treatment start Day 1 [2, 7]: 21.26 ± 0.38 g | anti-tumor effect on the MV-4-11 cell xenograft tumor mouse model ([3]; ABBV-075 3 mg/kg, GSK762 15 mg/kg, 4009 10 mg/kg, intragastric QD*14): significant anti-tumor effect | T/C % ([3]; TRTV/CRTV, intragastric QD*14, ABBV-075 3, GSK762 15, 4009 10 mg/kg, 15th day): 30.13% | P, tumor volume difference between the control group and the administrated group ([3]; day 1 after administration, ABBV-075 3, GSK762 15, 4009 10 mg/kg): P > 0.05 | P, tumor volume difference between the control group and the administrated group ([3]; day 4 after administration, ABBV-075 3, GSK762 15, 4009 10 mg/kg): P > 0.05 | P, tumor volume difference between the control group and the administrated group ([3]; day 6 after administration, ABBV-075 3, GSK762 15, 4009 10 mg/kg): P > 0.05 | P, tumor volume difference between the control group and the administrated group ([3]; day 8 after administration, ABBV-075 3, GSK762 15, 4009 10 mg/kg): P > 0.05 | P, tumor volume difference between the control group and the administrated group ([3]; day 11 after administration, ABBV-075 3, GSK762 15, 4009 10 mg/kg): P < 0.001 (***) | P, tumor volume difference between the control group and the administrated group ([3]; day 13 after administration, ABBV-075 3, GSK762 15, 4009 10 mg/kg): P < 0.001 (***) | P, tumor volume difference between the control group and the administrated group ([3]; day 15 after administration, ABBV-075 3, GSK762 15, 4009 10 mg/kg): P < 0.001 (***) | Average tumor weight, 15th day of treatement ([3]; intragastric QD*14, ABBV-075 3, GSK762 15, 4009 10 mg/kg): 0.276 ± 0.08 g | Average tumor volume, Treatement starts 1st day ([3]; intragastric QD*14, ABBV-075 3, GSK762 15, 4009 10 mg/kg, 1st day): 136.78 ± 14.97 mm^3 | Tumor volume TGI (%) 4th day ([3]; intragastric QD*14, ABBV-075 3, GSK762 15, 4009 10 mg/kg, 4th day): 81.27% | Tumor volume TGI (%) 6th day ([3]; intragastric QD*14, ABBV-075 3, GSK762 15, 4009 10 mg/kg, 6th day): 75.63% | Tumor volume TGI (%) 8th day ([3]; intragastric QD*14, ABBV-075 3, GSK762 15, 4009 10 mg/kg, 8th day): 79.64% | Tumor volume TGI (%) 11th day ([3]; intragastric QD*14, ABBV-075 3, GSK762 15, 4009 10 mg/kg, 11th day): 83.17% | Tumor volume TGI (%) 13th day ([3]; intragastric QD*14, ABBV-075 3, GSK762 15, 4009 10 mg/kg, 13th day): 81.77% | Tumor volume TGI (%) 15th day ([3]; intragastric QD*14, ABBV-075 3, GSK762 15, 4009 10 mg/kg, 15th day): 81.16% | Average tumor volume, Treatement ends 15th day ([3]; intragastric QD*14, ABBV-075 3, GSK762 15, 4009 10 mg/kg, 15th day, 10 mg/kg): 305.80 mm^3 and 305.80 ± 81.48 mm^3 | F ([4]; PO 2 mg/kg vs IV 0.5 mg/kg): 99.7% | Cmax ([4]; PO 2 mg/kg, N = 3, cassette): 742 | AUC(0-inf) [4, 8]: 590 ng·h/mL | AUC(0-t) [4, 8]: 575 ng·h/mL | MRT inf [4, 8]: 1.61 h | clearance [4, 8]: 14.2 mL/min/kg | half-life [4, 8]: 1.69 h | Vd ([4]; female, Balb/c nude, mouse, whole blood, IV 0.5 mg/kg, N = 3, cassette, read-out: Vss): 1.38 L/kg | AUC(0-inf) [4, 9]: 2350 ng·h/mL | AUC(0-t) [4, 9]: 2250 ng·h/mL | Tmax [4, 9]: 0.667 h | half-life [4, 9]: 4.21 h | HLM_T1/2 [5]: 471.41 min | CLint scaled at 1 µM ([5]; pH 7.4, read-out: HLM_CLint): 3.69 mL/min/kg | IC50 [6]: 5 nM
